PubChem BioAssay AID1117361 (Southern Research Institute, 2015)

Molecular target: Protein Tat (Human immunodeficiency virus type 1 group M subtype B (isolate HXB2)) (UniProt P04608)
Experiment: inhibitors of Tat binding to TAR RNA, dose response, counter-screen for Vif-APOBEC3G degradation inhibitor project, biochemical, fluorescence polarization, FAM-labeled TAR RNA (AID 1117361)

Protein Tat (Human immunodeficiency virus type 1 group M subtype B (isolate HXB2)), sequence (P04608 whole entry, looked up): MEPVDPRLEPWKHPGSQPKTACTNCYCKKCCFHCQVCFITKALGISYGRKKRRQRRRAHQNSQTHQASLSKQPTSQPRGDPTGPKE

**Q.** How did the IC50 turn out when `CO[C@H]1C=CO[C@@]2(C)Oc3c(C)c(O)c4c(O)c(c(C=NN5CCN(C)CC5)c(O)c4c3C2=O)NC(=O)C(C)=CC=C[C@H](C)[C@H](O)[C@@H](C)[C@@H](O)[C@@H](C)[C@H](OC(C)=O)[C@@H]1C` was run?
**A.** 11.2 µM

**Q.** How did the IC50 turn out when `COC(=O)C1=C(N)OC2=C(C(=O)CCC2)C1c1cccs1` (stereo not given) was run?
**A.** 52.2 µM

**Q.** For `O=c1nc2s/c(=C\c3ccco3)c(=O)n2nc1Cc1ccccc1`, which IC50 is on record?
**A.** 5.21 µM

**Q.** `COC1=C(N)C(=O)c2nc(-c3nc(C(=O)O)c(C)c(-c4ccc(OC)c(OC)c4O)c3N)ccc2C1=O` was tested. Which IC50 did it give?
**A.** 42.1 µM

**Q.** How did the IC50 turn out when `CC1CC(=O)c2c(cc3c(-c4c(O)cc(O)c5c(O)c6c(cc45)OC(C)CC6=O)c(O)cc(O)c3c2O)O1` (stereo not given) was run?
**A.** 7.62 µM

**Q.** `Nc1ccc2c(O)cc(S(=O)(=O)O)cc2c1` was tested. Which IC50 did it give?
**A.** 48 µM

**Q.** With `Cc1cccc(C)c1NC(=O)COC(=O)c1cc(-c2cccnc2)nc2ccccc12` as the compound, how does the IC50 read?
**A.** 84.6 µM

**Q.** How did the IC50 turn out when `CC(C)CNC1=CC(=O)CC(c2ccco2)C1` (stereo not given) was run?
**A.** 31.3 µM

**Q.** For `C/C(=C\C(=O)c1ccc(C)cc1)Nc1cccc(O)c1`, which IC50 is on record?
**A.** 10.4 µM

**Q.** With `Cn1cccc1/C=C1\CCC/C(=C\c2cccn2C)C1=O` as the compound, how does the IC50 read?
**A.** 17 µM

**Q.** `N=C1S/C(=C\c2ccco2)C(=O)N1c1ccc2c(c1)OCO2` was tested. Which IC50 did it give?
**A.** 18.4 µM

**Q.** Which IC50 does the source give for `Cc1cc(C(=O)CSc2nnc(-c3ccco3)o2)c(C)n1Cc1ccco1` here?
**A.** 4.41 µM

**Q.** `CC(C)OC(=O)c1cccc(C(=O)O)n1` was tested. Which IC50 did it give?
**A.** 1.92 µM

**Q.** How did the IC50 turn out when `Cc1ccccc1Cc1c(C)nc2c(C(=O)NCc3ccc4c(c3)OCO4)cnn2c1C` was run?
**A.** 1.06 µM

**Q.** `O=C(CCN1CCN(c2ccccc2)CC1)N/N=C/c1ccc(O)c(O)c1O` was tested. Which IC50 did it give?
**A.** 4.87 µM

**Q.** For `COc1cc(C(=O)NCc2nnc(SCC(=O)Nc3nc4ccc(C)cc4s3)o2)cc(OC)c1OC`, which IC50 is on record?
**A.** 35.9 µM

**Q.** For `COc1ccc2[nH]c3c4c(ccc3c2c1)C(=O)C=CC4=O`, which IC50 is on record?
**A.** 24.7 µM

**Q.** With `O=C(NCC1CCCO1)c1cc(-c2ccco2)nc2ccccc12` (stereo not given) as the compound, how does the IC50 read?
**A.** 49.5 µM

**Q.** Which IC50 does the source give for `Cc1cc(=O)c2c(O)c(O)ccc2o1` here?
**A.** 47.4 µM

**Q.** `Cc1ccc(N2C(=O)/C(=C/c3ccc(CN(CCC#N)S(C)(=O)=O)o3)C(=O)NC2=S)cc1` was tested. Which IC50 did it give?
**A.** 90 µM

**Q.** With `Cc1cc(C(=O)CSc2nnnn2C)c(C)n1CCc1ccc(Cl)cc1` as the compound, how does the IC50 read?
**A.** 84.6 µM

**Q.** With `O=C1CCCC(O)=C1N=Nc1ccc(S(=O)(=O)N2CCOCC2)cc1` as the compound, how does the IC50 read?
**A.** 37.6 µM

**Q.** For `CCN(CC)Cc1cc(O)c(CN(CC)CC)cc1O`, which IC50 is on record?
**A.** 4.37 µM

**Q.** With `CCCCC(=O)NC(=S)Nc1cc(C(=O)O)ccc1Cl` as the compound, how does the IC50 read?
**A.** 51.2 µM

**Q.** `O=C(N/N=C/C(Br)=C/c1ccccc1)c1cc(-c2ccco2)[nH]n1` was tested. Which IC50 did it give?
**A.** 8.53 µM

**Q.** For `COc1cccc(CNC(=O)CCNS(=O)(=O)c2cccs2)c1`, which IC50 is on record?
**A.** 9.05 µM

**Q.** With `O=C1NN(c2ccc(Cl)cc2)C(=O)/C1=C\c1ccc(-c2cccc(C(=O)O)c2)o1` as the compound, how does the IC50 read?
**A.** 23.4 µM

**Q.** Which IC50 does the source give for `O=C1CC(c2ccco2)CC(O)=C1C=Nc1cc(Cl)cc(Cl)c1` (stereo not given) here?
**A.** 9.58 µM

**Q.** For `N=C1/C(=C/c2ccc(Br)o2)C(=O)N=C2SC(CC(=O)N3CCCC3)=NN12`, which IC50 is on record?
**A.** 53.7 µM

**Q.** For `O=C(Cc1ccccc1)NC(Nc1ccccc1)C(Cl)(Cl)Cl` (stereo not given), which IC50 is on record?
**A.** 87.8 µM

**Q.** With `CCOC(=O)c1cnn2c(N)c(C#N)nnc12` as the compound, how does the IC50 read?
**A.** 45.7 µM

**Q.** With `COC(=O)CSc1nnc(CNC(=O)Cc2ccccc2)n1C` as the compound, how does the IC50 read?
**A.** 1.43 µM

**Q.** Which IC50 does the source give for `N#CC(C#N)=Cc1cccn1-c1ccc(C(=O)O)cc1` here?
**A.** 33.3 µM

**Q.** `CC(N=Cc1cccc(O)c1O)c1ccccc1` (stereo not given) was tested. Which IC50 did it give?
**A.** 6.96 µM

**Q.** How did the IC50 turn out when `Cc1cc(C(=O)COC(=O)c2cc(O)c3ccccc3c2O)c(C)n1CC1CCCO1` (stereo not given) was run?
**A.** 9.14 µM

**Q.** Which IC50 does the source give for `CN(C)C(CNC(=O)c1cccnc1Sc1ccccc1)c1ccco1` (stereo not given) here?
**A.** 68.7 µM

**Q.** Which IC50 does the source give for `O=C(CSc1nc2ccccc2n1CCc1ccccc1)c1ccc(O)c(O)c1` here?
**A.** 8.81 µM

**Q.** For `O=C1NC(=O)N(Cc2ccc(F)cc2)C(=O)/C1=C\C=C\c1ccco1`, which IC50 is on record?
**A.** 42.3 µM

**Q.** With `O=C(O)Cc1ccc(N=Nc2c(O)c(C(=O)O)cc3ccccc23)cc1` as the compound, how does the IC50 read?
**A.** 27.5 µM

**Q.** With `CC[n+]1ccc(C)c2cc(P(=O)(c3ccccc3)c3ccccc3)ccc21` as the compound, how does the IC50 read?
**A.** 72.9 µM

**Q.** For `Cc1ccc(C)n1-c1ccc(-c2nnc3n2CCCCC3)s1`, which IC50 is on record?
**A.** 54.2 µM

**Q.** With `COC(=O)C1C(O)C(C)C(O)C(C)(O)/C=C\C=C(/C)C(=O)Nc2c(C)c(OC(C)=O)c3c(c2O)C(=O)C(C)=C2OCOC(=C23)/C(C)=C/C(C)(O)C(O)C(C)C1O` (stereo not given) as the compound, how does the IC50 read?
**A.** 54.6 µM

**Q.** `O=C(NCc1ccccc1Cl)c1csc2c1CCCCC2` was tested. Which IC50 did it give?
**A.** 27.2 µM

**Q.** For `CC(/C=N/n1c(-c2ccncc2)n[nH]c1=S)=C\c1ccco1`, which IC50 is on record?
**A.** 8.22 µM

**Q.** How did the IC50 turn out when `O=C(COC(=O)c1cc(-c2ccco2)nc2ccccc12)NCc1ccc2c(c1)OCO2` was run?
**A.** 18.2 µM

**Q.** `N#CC1=C(N)C2=C(N3CCCCC3)CCCC2C1(C#N)C#N` (stereo not given) was tested. Which IC50 did it give?
**A.** 5.45 µM

**Q.** Which IC50 does the source give for `CC(=O)Nc1cccc(Oc2ncnc3scc(-c4ccccc4)c23)c1` here?
**A.** 31 µM

**Q.** For `COc1ccc2nc3ccccc3nc2c1N`, which IC50 is on record?
**A.** 81.6 µM

**Q.** Which IC50 does the source give for `COc1ccc2c(c1OC)C(=O)OC2CC(=O)c1ccc(O)c(O)c1` (stereo not given) here?
**A.** 80.5 µM

**Q.** `NC(=O)c1c(NC(=O)c2ccc(S(=O)(=O)N3CCOCC3)cc2)sc2c1CCCCC2` was tested. Which IC50 did it give?
**A.** 58.3 µM

**Q.** How did the IC50 turn out when `COC(=O)CCC(=O)OC1(C)C(=O)C2=COC(c3ccc(OC)cc3)=CC2=C(Br)C1=O` (stereo not given) was run?
**A.** 13 µM

**Q.** Which IC50 does the source give for `S=c1[nH]nc(COc2ccc3c(c2)OCO3)n1-c1ccccc1` here?
**A.** 1.03 µM

**Q.** How did the IC50 turn out when `COc1ccc(CCNC(=O)c2ccc3nc(-c4ccco4)c(-c4ccco4)nc3c2)cc1OC` was run?
**A.** 4.32 µM

**Q.** With `CCOC(=O)C1CCCN(C(=O)c2ccc(CNc3c(N4CCC(C)CC4)c(=O)c3=O)cc2)C1` (stereo not given) as the compound, how does the IC50 read?
**A.** 65.3 µM

**Q.** Which IC50 does the source give for `CCN(C(=O)c1coc(=O)c(Br)c1)c1ccc2c(c1)OCO2` here?
**A.** 1.17 µM
